Results: US20240417405A1, “Substituted Spiro Derivatives” (Janssen Pharmaceutica NV, priority 2021, published 2024)
Read-outs that look alike come from different tables or passages of the source.

Columns and labels:
MOLM14 cells = test: Proliferation assay, spheroid-like growth, MOLM14 (MLL-AF9 rearranged); format: cell-based, human; conditions: 8 days, confluence as measure of spheroid size, read-out: spheroid assay_OneTime MOLM14 IC50
Outline: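 Seed cells at linear-growth densities in low-attachment wells; add test compound at several concentrations, normalized to 0.3% DMSO; incubate 8 days at 37 °C; image spheroids and measure confluence; calculate absolute IC50 against DMSO and reference-compound controls.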

[1] = target: T1, menin/MLL (terbium chelate-labeled menin, FITC-MBM1 peptide) (Homo sapiens, UniProt O00255, T541A); test: Menin/MLL homogenous time-resolved fluorescence (HTRF) assay; format: binding; conditions: 30 min incubation
T1 construct: Menin (a.a 1-610-6xhis tag)
T1 sequence (O00255 with tags, fused parts or gaps T541A): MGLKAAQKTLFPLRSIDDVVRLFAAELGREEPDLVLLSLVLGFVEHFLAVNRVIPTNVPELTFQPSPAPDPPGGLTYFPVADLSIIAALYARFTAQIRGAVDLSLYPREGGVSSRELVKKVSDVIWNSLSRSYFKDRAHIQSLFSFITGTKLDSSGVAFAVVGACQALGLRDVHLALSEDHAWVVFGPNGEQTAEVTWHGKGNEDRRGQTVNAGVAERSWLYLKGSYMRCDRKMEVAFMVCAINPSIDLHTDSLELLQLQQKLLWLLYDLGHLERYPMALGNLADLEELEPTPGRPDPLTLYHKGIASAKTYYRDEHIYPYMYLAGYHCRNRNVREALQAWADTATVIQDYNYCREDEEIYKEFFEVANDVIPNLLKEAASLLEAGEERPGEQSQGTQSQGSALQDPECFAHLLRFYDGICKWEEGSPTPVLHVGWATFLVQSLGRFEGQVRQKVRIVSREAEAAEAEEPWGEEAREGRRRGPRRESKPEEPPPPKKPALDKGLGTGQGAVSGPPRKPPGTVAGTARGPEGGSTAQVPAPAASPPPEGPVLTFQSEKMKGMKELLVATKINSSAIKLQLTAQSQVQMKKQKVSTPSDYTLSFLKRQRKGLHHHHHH
Outline: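 Percent inhibition, calculated from the 520/490 nm HTRF ratio against high and low controls, was fitted for IC50 with a 0.1 nM detection limit. Reactions held 200 pM Tb-menin and 75 nM FITC-MBM1 in pH 7.5 Tris buffer with 0.5% DMSO.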

KO-52 cells = test: Proliferation assay, spheroid-like growth, KO-52 (MLL wildtype control cell line); format: cell-based, human; conditions: KO-52 control cells, 8 days, confluence as measure of spheroid size, read-out: spheroid assay_OneTime KO-52 IC50
Method: The anti-proliferative effect of menin/MLL protein/protein interaction inhibitor test compounds was assessed in human leukemia cell lines. The cell line MOLM14 harbors a MLL translocation and expresses the MLL fusion proteins MLL-AF9, respectively, as well as the wildtype protein from the second allele. […] KO-52 was used as a control cell line containing two MLL (KMT2A) wildtype alleles in order to exclude compounds that display general cytotoxic effects.
MOLM14 cells were cultured in RPMI-1640 (Sigma Aldrich) supplemented with 10% heat-inactivated fetal bovine serum (HyClone), 2 mM L-glutamine (Sigma Aldrich) and 50 μg/ml gentamycin (Gibco). KO-52 cell lines were propagated in alpha-MEM (Sigma Aldrich) supplemented with 20% heat-inactivated fetal bovine serum (HyClone), 2 mM L-glutamine (Sigma Aldrich) and 50 μg/ml gentamycin (Gibco).
In order to assess the anti-proliferative effects, 200 MOLM14 cells, or 300 KO-52 cells were seeded in 200 μl media per well in 96-well round bottom, ultra-low attachment plates (Costar, catalogue number 7007). Cell seeding numbers were chosen based on growth curves to ensure linear growth throughout the experiment. Test compounds were added at different concentrations and the DMSO content was normalized to 0.3%. Cells were incubated for 8 days at 37° C. and 5% CO2. Spheroid like growth was measured in real-time by live-cell imaging (IncuCyteZOOM, Essenbio, 4× objective) acquiring images at day 8. Confluence (%) as a measure of spheroid size was determined using an integrated analysis tool.
In order to determine the effect of the test compounds over time, the confluence in each well as a measure of spheroid size, was calculated. Confluence of the highest dose of a reference compound was used as baseline for the LC (Low control) and the confluence of DMSO treated cells was used as 0% cytotoxicity (High Control, HC).
Absolute IC50 values were calculated as percent change in confluence as follows:
LC=Low Control: cells treated with e.g. 1 μM of the cytotoxic agent staurosporin, or e.g. cells treated with a high concentration of an alternative reference compound
GraphPad Prism (version 7.00) was used to calculate the IC50. Dose-response equation was used for the plot of % Effect vs Log 10 compound concentration with a variable slope and fixing the maximum to 100% and the minimum to 0%.

Row | SMILES | IC50 (MOLM14 cells; Homo sapiens, MOLM-14, 192 h) | IC50 [1] | IC50 (KO-52 cells; Homo sapiens, 192 h) | IC50 (MOLM14 cells) | IC50 (KO-52 cells)
1 | CC(C)C([C@H]1C[C@H](N2C[C@H]3COC[C@H]3C2)C1)N1CC2(CCN(c3ncnnc3Oc3ccc(F)cc3-c3cnccc3C3CC3)C2)C1 (stereo partly drawn) [Compound 139] | 41 nM | 0.1 nM | 1310 nM |  | 
2 | CC(C)C([C@H]1C[C@@H](NC(=O)CCN(C)C)C1)N1CC2(CCN(c3ncnnc3Oc3ccc(F)cc3-c3cncnc3C3CC3)C2)C1 (stereo partly drawn) [Compound 302] | 21 nM | 0.1 nM | 14100 nM |  | 
3 | COC1CN([C@H]2C[C@H]([C@@H](C(C)C)N3CC4(CCN(c5ncnnc5Oc5ccc(F)cc5-c5cncnc5C5CC5)C4)C3)C2)CC1OC (single isomer, unassigned) [Compound 237] | 36 nM | 0.2 nM | 7900 nM |  | 
4 | COC1(C(=O)N[C@H]2C[C@@H]([C@@H](C(C)C)N3CC4(CCN(c5ncnnc5Oc5ccc(F)cc5-c5cncnc5C5CC5)C4)C3)C2)CC1 (single isomer, unassigned) [Compound 330] | 130 nM | 0.4 nM | 5900 nM |  | 
5 | CO[C@@H]1CCN([C@H]2C[C@@H]([C@@H](C(C)C)N3CC4(CCN(c5ncnnc5Oc5ccc(F)cc5-c5cncnc5C5CC5)C4)C3)C2)C1 (single isomer, unassigned) [Compound 211] | 3 nM | 0.1 nM | > 15000 nM |  | 
6 | CC(C)[C@@H]([C@H]1C[C@@H](N2CCC[C@@H](O)C2)C1)N1CC2(CCN(c3ncnnc3Oc3ccc(F)cc3-c3cccnc3C3CC3)C2)C1 (single isomer, unassigned) [Compound 93] | 3 nM | 0.1 nM | 490 nM |  | 
7 | CC(C)[C@H]([C@H]1C[C@H](N2CC[C@H](C(C)(C)O)C2)C1)N1CC2(CCN(c3ncnnc3Oc3ccc(F)cc3-c3cncnc3C3CC3)C2)C1 (single isomer, unassigned) [Compound 69] | 39 nM | 0.1 nM | 14000 nM |  | 
8 | CO[C@H]1CCN([C@H]2C[C@@H]([C@@H](C(C)C)N3CC4(CCN(c5ncnnc5Oc5ccc(F)cc5-c5cnncc5C5CC5)C4)C3)C2)C1 (single isomer, unassigned) [Compound 81] | 280 nM | 2 nM | > 15000 nM |  | 
9 | CC(C)[C@H]([C@H]1C[C@H](N2CC(O)C3(CCC3)C2)C1)N1CC2(CCN(c3ncnnc3Oc3ccc(F)cc3-c3cncnc3C3CC3)C2)C1 (mixture of isomers) [Compound 213] | 41 nM | 0.1 nM | 3910 nM |  | 
10 | CC(C)[C@H]([C@H]1C[C@@H](NC(=O)C2(F)CC2)C1)N1CC2(CCN(c3ncnnc3Oc3ccc(F)cc3-c3cncnc3C3CC3)C2)C1 (single isomer, unassigned) [Compound 301] | 33 nM | 0.2 nM | 2500 nM |  | 
11 | CNC(=O)c1cnc(N[C@H]2C[C@@H](C(C(C)C)N3CC4(CCN(c5ncnnc5Oc5ccc(F)cc5-c5cncnc5C5CC5)C4)C3)C2)o1 (single isomer, unassigned) [Compound 436] | 9.9 nM | 0.36 nM | 5970 nM |  | 
12 | CC(C)[C@@H]([C@H]1C[C@@H](N2CCC(O)C(F)C2)C1)N1CC2(CCN(c3ncnnc3Oc3ccc(F)cc3-c3cncnc3C3CC3)C2)C1 (single isomer, unassigned) [Compound 85] | 1560 nM | 25.4 nM | > 15000 nM |  | 
13 | COc1ncc(-c2cc(F)ccc2Oc2nncnc2N2CCC3(C2)CN(C(C(C)C)[C@H]2C[C@@H](NC(C)=O)C2)C3)c(C2CC2)n1 (stereo partly drawn) [Compound 500] | 35 nM | 0.3 nM | 10200 nM |  | 
14 | CC(C)C([C@H]1C[C@@H](Nc2ccn(C)n2)C1)N1CC2(CCN(c3ncnnc3Oc3ccc(F)cc3-c3cncnc3C3CC3)C2)C1 (stereo partly drawn) [Compound 194] | 450 nM | 0.9 nM | > 15000 nM |  | 
15 | CC(C)[C@H]([C@H]1C[C@@H](N2CC3(COC3)C2)C1)N1CC2(CCN(c3ncnnc3Oc3ccc(F)cc3-c3ncccc3C3CC3)C2)C1 (single isomer, unassigned) [Compound 151] | 4 nM | 0.1 nM | 2030 nM |  | 
16 | CC(=O)N[C@H]1C[C@@H](C(C(C)C)N2CC3(CCN(c4ncnnc4Oc4ccc(F)cc4-c4ncncc4C4CC4)C3)C2)C1 (stereo partly drawn) [Compound 179] | 73 nM | 0.4 nM | 12600 nM |  | 
17 | CC(C)C([C@H]1C[C@@H](Nc2ncc(C(=O)O)o2)C1)N1CC2(CCN(c3ncnnc3Oc3ccc(F)cc3-c3cncnc3C3CC3)C2)C1 (single isomer, unassigned) [Compound 479] | 530 nM | 1.77 nM | > 15000 nM |  | 
18 | CC(C)[C@H]([C@H]1C[C@]2(COC(=O)N2)C1)N1CC2(CCN(c3ncnnc3Oc3ccc(F)cc3-c3cncnc3C3CC3)C2)C1 (single isomer, unassigned) [Compound 319] | > 940 nM | 23.7 nM | > 15000 nM |  | 
19 | Fc1ccc(Oc2nncnc2N2CCC3(C2)CN([C@H](C2CCN(CC4COC4)CC2)C24CC(C2)C4)C3)c(-c2cncnc2C2CC2)c1 (single isomer, unassigned) [Compound 335] | 30 nM | 0.2 nM | 3240 nM |  | 
20 | CC(C)[C@H]([C@H]1C[C@H](N2CCC(O)C(F)C2)C1)N1CC2(CCN(c3ncnnc3Oc3ccc(F)cc3-c3cncnc3C3CC3)C2)C1 (single isomer, unassigned) [Compound 33] | 7 nM | 0.3 nM | 2490 nM |  | 
21 | CC(C)[C@H]([C@H]1C[C@@H](NC(=O)C2CC2)C1)N1CC2(CCN(c3ncnnc3Oc3ccc(F)cc3-n3ncnc3C3CC3)C2)C1 (single isomer, unassigned) [Compound 308] | 70 nM | 0.2 nM | 4570 nM |  | 
22 | CC(=O)N1CCC2CN([C@H]3C[C@@H]([C@@H](C(C)C)N4CC5(CCN(c6ncnnc6Oc6ccc(F)cc6-c6cncnc6C6CC6)C5)C4)C3)CC21 (single isomer, unassigned) [Compound 57] |  | 0.1 nM | 7540 nM | 8 nM | 
23 | CC(=O)N1CCC2CN([C@H]3C[C@@H]([C@@H](C(C)C)N4CC5(CCN(c6ncnnc6Oc6ccc(F)cc6-c6cncnc6C6CC6)C5)C4)C3)CC21 (single isomer, unassigned) [Compound 58] |  | 0.1 nM |  | 19 nM | > 15000 nM
24 | CC(C)[C@@H]([C@H]1C[C@@H](N2CC[C@H](S(C)(=O)=O)C2)C1)N1CC2(CCN(c3ncnnc3Oc3ccc(F)cc3-c3ncccc3C3CC3)C2)C1 (single isomer, unassigned) [Compound 285] | > 940 nM | 23.3 nM | > 15000 nM |  | 
